Measurements taken from publication PMC3523327 (Bioorganic & medicinal chemistry letters, 2012).

tested on: HIV-1 vector with N155H IN mutant; assay: not given; details: cellular studies, HIV vectors bearing N155H mutant; ref [25]; cited from earlier work

Row | Compound | loss of antiviral potency
1 | Cc1nnc(C(=O)NC(C)(C)c2nc(C(=O)NCc3ccc(F)cc3)c(O)c(=O)n2C)o1 [raltegravir] | ~40 fold

molecular target: HIV-1 integrase (IN), strand transfer (Human immunodeficiency virus type 1 group M subtype B, UniProt P12497); assay: in vitro IN assay, strand transfer reaction; assay type: biochemical; details: ST IC50 of 5d-2 versus 4d

Row | Compound | enhancement in the ST reaction relative to parent 4d
2 | CC(C)c1c(O)c(O)c2c(c1S(=O)(=O)N(C)C)CN(Cc1ccc(F)c(Cl)c1)C2=O [Compound 5d-2] | 20 fold

molecular target: HIV-1 integrase (IN), 3′-processing (Human immunodeficiency virus type 1 group M subtype B, UniProt P12497); assay: in vitro IN assay, 3′-processing reaction; assay type: biochemical; details: not given

Row | Compound | IC50
3 | CC(C)c1cc2c(c(O)c1O)C(=O)N(Cc1ccc(F)c(Cl)c1)C2 [Compound 4d] | > 111 µM
4 | CC(C)c1c(O)c(O)c2c(c1S(=O)(=O)N1CCOCC1)CN(Cc1ccc(F)c(Cl)c1)C2=O [Compound 5d-10] | > 111 µM
5 | CN(C)S(=O)(=O)c1ccc(-c2cc3c(c(O)c2O)C(=O)N(Cc2ccc(F)c(Cl)c2)C3)cc1 [Compound 4h] | > 111 µM
6 | Cc1cc2c(c(O)c1O)C(=O)N(Cc1ccc(F)c(Cl)c1)C2 [Compound 4b] | > 111 µM
7 | CCCCc1c(O)c(O)c2c(c1S(=O)(=O)N(C)C)CN(Cc1ccc(F)c(Cl)c1)C2=O [Compound 5c-2] | > 111 µM
8 | O=C1c2c(cc(-c3ccccc3)c(O)c2O)CN1Cc1ccc(F)c(Cl)c1 [Compound 4e] | > 111 µM
9 | CCCCc1cc2c(c(O)c1O)C(=O)N(Cc1ccc(F)c(Cl)c1)C2 [Compound 4c] | > 111 µM
10 | CC(C)c1c(O)c(O)c2c(c1S(=O)(=O)N(C)C)CN(Cc1ccc(F)c(Cl)c1)C2=O [Compound 5d-2] | > 111 µM
